In assay [1] the target is T1, Gamma-aminobutyric acid receptor subunit alpha-1/alpha-2/beta-2/gamma-2 (Homo sapiens, UniProt P14867+P18507+P47869+P47870). The class given is functional, cell-based.
The target of assay [2] is 5-hydroxytryptamine receptor 2A (Homo sapiens, UniProt P28223).
In assay [3] the target is T1, Gamma-aminobutyric acid receptor subunit alpha-1/alpha-2/beta-2/gamma-2. The class given is functional, cell-based. The source holds these as a separate data set.
For assay [4], the target named is T2, Histamine H1 receptor (Homo sapiens, UniProt P35367). The class given is functional, cell-based.
T2 sequence (P35367 whole entry): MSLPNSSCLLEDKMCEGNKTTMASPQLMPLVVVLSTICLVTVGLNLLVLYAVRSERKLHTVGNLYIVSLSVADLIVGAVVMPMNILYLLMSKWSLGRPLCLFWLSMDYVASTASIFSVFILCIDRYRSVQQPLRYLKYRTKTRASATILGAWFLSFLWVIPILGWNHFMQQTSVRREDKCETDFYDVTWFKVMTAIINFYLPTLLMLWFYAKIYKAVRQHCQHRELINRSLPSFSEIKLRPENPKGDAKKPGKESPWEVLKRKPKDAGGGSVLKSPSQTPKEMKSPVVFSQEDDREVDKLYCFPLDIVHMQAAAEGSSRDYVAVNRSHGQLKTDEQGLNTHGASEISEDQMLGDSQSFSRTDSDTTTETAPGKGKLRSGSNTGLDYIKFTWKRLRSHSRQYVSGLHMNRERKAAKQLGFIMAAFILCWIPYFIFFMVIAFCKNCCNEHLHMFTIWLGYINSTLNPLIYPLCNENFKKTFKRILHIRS
The target in assay [5] is T3, Peroxisome proliferator-activated receptor gamma (Homo sapiens, UniProt P37231).
T3 sequence (P37231 whole entry): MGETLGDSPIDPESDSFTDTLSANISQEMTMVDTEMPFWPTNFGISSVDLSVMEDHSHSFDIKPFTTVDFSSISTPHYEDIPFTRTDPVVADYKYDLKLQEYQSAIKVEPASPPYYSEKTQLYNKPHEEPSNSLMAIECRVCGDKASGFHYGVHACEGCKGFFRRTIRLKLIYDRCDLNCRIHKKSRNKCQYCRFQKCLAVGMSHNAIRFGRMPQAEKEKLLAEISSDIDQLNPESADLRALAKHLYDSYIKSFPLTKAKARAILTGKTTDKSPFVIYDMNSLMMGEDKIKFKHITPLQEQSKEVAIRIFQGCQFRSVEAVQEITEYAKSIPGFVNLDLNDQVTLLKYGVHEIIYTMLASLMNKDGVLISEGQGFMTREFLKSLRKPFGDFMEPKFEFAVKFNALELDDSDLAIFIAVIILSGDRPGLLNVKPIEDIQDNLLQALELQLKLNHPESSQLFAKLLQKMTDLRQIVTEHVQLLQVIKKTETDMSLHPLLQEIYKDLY
The class given is functional.

Assay [6] has as its target T2, Histamine H1 receptor. The class given is functional, cell-based. The source holds these as a separate data set.
In a further assay the target is T4, Androgen receptor (Rattus norvegicus, UniProt P15207).
T4 sequence (P15207 whole entry): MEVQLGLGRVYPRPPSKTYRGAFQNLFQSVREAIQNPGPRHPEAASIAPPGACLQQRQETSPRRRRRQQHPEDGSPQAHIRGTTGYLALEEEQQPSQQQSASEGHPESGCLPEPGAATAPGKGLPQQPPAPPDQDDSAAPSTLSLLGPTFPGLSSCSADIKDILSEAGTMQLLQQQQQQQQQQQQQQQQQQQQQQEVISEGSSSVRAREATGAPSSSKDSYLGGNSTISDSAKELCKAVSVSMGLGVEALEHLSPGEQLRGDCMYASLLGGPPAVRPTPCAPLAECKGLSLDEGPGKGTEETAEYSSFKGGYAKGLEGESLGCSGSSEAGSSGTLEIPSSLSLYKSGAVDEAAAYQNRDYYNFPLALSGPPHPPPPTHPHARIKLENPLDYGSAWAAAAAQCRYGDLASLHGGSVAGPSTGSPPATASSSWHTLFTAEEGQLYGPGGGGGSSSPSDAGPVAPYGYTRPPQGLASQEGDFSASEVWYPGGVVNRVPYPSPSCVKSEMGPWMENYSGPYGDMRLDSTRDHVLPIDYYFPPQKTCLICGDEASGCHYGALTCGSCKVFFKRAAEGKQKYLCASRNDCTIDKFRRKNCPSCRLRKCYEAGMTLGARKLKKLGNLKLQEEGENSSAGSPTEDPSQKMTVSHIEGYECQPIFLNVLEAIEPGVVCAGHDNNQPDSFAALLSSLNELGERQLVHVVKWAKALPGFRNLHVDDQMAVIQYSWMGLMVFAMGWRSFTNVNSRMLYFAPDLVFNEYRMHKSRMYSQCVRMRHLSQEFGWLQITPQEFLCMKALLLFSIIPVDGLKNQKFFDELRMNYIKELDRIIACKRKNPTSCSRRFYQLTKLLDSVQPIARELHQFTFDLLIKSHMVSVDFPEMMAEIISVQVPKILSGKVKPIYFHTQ
The class given is functional.

Assay [7] addresses T5, Alpha-2A adrenergic receptor (Homo sapiens, UniProt P08913).
T5 sequence (P08913 whole entry): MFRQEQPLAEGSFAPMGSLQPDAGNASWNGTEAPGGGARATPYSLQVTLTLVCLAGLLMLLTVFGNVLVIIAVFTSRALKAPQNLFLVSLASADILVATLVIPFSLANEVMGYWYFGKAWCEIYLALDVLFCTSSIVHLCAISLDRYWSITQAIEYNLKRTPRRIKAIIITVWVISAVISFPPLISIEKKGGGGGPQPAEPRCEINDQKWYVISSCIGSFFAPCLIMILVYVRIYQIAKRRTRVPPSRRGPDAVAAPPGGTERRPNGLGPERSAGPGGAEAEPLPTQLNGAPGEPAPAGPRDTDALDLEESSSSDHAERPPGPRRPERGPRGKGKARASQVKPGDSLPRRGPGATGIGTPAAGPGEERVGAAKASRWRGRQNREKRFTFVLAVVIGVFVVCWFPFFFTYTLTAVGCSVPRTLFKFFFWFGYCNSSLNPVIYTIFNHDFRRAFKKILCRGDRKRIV

Another assay concerns the target D(1A) dopamine receptor (Homo sapiens, UniProt P21728).
The target of assay [8] is T6, 5-hydroxytryptamine receptor 1A (Homo sapiens, UniProt P08908).
T6 sequence (P08908 whole entry): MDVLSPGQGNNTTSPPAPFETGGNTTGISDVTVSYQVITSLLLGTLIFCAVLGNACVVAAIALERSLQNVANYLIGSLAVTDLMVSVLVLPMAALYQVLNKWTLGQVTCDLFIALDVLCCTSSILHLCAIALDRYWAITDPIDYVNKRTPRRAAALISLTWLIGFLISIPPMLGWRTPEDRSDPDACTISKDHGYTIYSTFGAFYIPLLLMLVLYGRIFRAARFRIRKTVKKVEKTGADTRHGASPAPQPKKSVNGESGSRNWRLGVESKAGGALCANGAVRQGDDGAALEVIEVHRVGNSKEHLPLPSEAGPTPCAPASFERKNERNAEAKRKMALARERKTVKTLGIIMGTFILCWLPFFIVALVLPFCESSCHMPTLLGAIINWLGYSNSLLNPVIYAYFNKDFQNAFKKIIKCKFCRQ
Also: assay procedure not described here.

T1 sequence (P14867 whole entry): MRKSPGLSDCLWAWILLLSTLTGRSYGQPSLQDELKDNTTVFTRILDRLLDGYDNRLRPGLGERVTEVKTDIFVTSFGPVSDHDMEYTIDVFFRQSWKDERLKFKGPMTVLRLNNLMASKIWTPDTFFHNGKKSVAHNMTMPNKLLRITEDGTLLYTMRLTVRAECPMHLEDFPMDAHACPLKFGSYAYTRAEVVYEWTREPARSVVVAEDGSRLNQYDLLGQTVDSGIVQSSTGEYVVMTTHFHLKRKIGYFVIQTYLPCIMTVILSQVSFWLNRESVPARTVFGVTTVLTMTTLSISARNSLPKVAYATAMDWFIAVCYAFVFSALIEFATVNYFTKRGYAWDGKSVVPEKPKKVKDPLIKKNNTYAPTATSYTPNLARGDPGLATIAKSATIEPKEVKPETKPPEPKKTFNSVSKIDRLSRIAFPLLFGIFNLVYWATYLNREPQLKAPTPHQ
T1 sequence (P47870 whole entry): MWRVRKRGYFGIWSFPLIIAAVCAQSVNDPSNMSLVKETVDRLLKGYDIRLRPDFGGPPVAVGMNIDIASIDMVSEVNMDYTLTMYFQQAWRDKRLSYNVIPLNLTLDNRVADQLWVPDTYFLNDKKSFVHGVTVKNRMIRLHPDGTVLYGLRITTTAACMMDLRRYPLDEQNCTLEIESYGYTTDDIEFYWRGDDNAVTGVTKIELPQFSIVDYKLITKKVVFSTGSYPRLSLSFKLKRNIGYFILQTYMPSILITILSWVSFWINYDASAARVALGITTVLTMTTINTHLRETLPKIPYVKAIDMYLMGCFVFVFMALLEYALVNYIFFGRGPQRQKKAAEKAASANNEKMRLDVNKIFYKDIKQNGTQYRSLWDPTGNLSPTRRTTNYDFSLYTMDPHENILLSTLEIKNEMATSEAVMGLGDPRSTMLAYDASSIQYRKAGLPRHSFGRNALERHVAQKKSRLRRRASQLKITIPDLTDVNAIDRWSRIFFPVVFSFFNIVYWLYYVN
T1 sequence (P18507 whole entry): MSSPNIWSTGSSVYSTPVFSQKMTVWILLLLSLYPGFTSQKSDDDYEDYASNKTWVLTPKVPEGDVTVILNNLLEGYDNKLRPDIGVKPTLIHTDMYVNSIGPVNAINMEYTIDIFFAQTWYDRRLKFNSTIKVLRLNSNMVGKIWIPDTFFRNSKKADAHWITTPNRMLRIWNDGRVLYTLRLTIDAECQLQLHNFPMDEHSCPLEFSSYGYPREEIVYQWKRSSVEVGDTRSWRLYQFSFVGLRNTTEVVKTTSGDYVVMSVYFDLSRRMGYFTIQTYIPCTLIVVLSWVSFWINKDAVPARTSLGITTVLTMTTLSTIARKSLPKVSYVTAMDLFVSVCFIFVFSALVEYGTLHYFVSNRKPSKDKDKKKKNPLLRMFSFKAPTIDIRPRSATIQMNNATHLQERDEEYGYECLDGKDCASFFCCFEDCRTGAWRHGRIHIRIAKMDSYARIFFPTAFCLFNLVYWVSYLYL
T1 sequence (P47869 whole entry): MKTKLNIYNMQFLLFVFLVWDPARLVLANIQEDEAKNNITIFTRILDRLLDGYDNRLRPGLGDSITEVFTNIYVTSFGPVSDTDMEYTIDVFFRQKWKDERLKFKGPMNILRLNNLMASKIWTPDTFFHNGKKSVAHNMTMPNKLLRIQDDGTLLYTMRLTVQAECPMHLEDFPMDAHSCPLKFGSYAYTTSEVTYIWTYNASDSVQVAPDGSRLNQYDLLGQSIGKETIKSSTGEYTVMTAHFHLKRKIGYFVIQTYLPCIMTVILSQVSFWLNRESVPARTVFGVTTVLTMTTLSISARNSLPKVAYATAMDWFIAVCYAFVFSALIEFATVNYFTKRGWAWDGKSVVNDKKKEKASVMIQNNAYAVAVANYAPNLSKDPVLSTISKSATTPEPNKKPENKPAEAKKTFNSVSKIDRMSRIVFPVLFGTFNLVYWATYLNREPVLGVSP
Sequence of D(1A) dopamine receptor (P21728 whole entry): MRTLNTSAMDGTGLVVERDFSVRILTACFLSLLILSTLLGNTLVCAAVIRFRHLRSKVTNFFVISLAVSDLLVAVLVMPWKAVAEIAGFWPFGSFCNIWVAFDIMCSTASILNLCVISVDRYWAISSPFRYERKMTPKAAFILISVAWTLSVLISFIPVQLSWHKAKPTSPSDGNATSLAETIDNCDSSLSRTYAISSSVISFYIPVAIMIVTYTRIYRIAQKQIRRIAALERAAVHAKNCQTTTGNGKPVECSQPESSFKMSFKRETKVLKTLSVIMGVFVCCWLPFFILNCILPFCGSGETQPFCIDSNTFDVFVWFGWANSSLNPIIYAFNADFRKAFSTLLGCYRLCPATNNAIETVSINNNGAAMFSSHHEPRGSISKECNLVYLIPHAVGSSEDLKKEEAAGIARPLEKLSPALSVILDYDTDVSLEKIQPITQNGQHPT
Sequence of 5-hydroxytryptamine receptor 2A (P28223 whole entry): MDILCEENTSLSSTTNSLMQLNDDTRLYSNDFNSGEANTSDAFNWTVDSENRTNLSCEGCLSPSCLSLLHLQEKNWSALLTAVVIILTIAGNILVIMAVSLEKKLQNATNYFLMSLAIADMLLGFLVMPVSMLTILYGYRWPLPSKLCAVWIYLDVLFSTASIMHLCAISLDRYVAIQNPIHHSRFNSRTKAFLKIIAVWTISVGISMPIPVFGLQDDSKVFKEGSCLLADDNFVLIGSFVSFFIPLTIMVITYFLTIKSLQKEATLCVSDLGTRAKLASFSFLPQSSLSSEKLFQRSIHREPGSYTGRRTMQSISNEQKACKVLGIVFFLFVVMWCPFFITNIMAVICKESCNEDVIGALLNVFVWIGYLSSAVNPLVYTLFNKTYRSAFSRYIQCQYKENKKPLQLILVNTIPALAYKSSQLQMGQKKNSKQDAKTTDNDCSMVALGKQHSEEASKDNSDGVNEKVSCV

Broadly, the AC50 is the concentration giving half of the maximal activity seen. A lower AC50 goes with activity at low concentration. In the case of `O=C(CCCN1CCC(n2c(O)nc3ccccc32)CC1)c1ccc(F)cc1` [BENPERIDOL], the AC50 is 20 µM in assay [1], 0.0035 µM in assay [2] and more than 30 µM in assay [3].

As for `CCN(CC)C(=O)C1CN2CCc3cc(OC)c(OC)cc3C2CC1OC(C)=O` (centres undefined) [BENZQUINAMIDE], the AC50 is more than 30 µM at Histamine H1 receptor [4]; more than 30 µM in assay [1]; 0.588 µM in [2]; more than 30 µM in [5]; more than 30 µM on Histamine H1 receptor [6]; more than 30 µM in [3]. Moreover, the concentration at half-maximal activity (AC50) on Androgen receptor was more than 30 µM; in [7] it was 3.03 µM.

Consider `CCCC(C)(COC(N)=O)COC(=O)NC(C)C` (centres undefined) [CARISOPRODOL], for which the AC50 is more than 30 µM on Histamine H1 receptor [4]; more than 10 µM at D(1A) dopamine receptor; more than 10 µM in [8]; more than 10 µM in assay [2]; more than 30 µM on Histamine H1 receptor [6]; more than 10 µM in assay [7].

In the case of `COCCOC(=O)C1=C(C)NC(C)=C(C(=O)OC/C=C/c2ccccc2)C1c1cccc([N+](=O)[O-])c1` (centres undefined) [CILNIDIPINE], the AC50 (at Histamine H1 receptor [4]; in assay [1]; at Histamine H1 receptor [6]; in assay [3]) was more than 30 µM in each case.

Take `N[C@H](Cc1cc(I)c(Oc2cc(I)c(O)c(I)c2)c(I)c1)C(=O)O` [DEXTROTHYROXINE]: the AC50 (on D(1A) dopamine receptor; in [8]; in assay [2]; in assay [7]) was more than 10 µM throughout.

As for `CC1(C)C(/C=C/C=C/C=C/C=C2\N(CCCCS(=O)(=O)O)c3ccc4ccccc4c3C2(C)C)=[N+](CCCCS(=O)(=O)[O-])c2ccc3ccccc3c21` [INDOCYANINE GREEN ACID FORM], the AC50 was more than 30 µM at Histamine H1 receptor [4], more than 30 µM in assay [1], more than 30 µM at Histamine H1 receptor [6] and 6.8 µM on Androgen receptor.

On to `CCCC[C@H](C)C[C@H](O)/C=C/[C@H]1[C@H](O)CC(=O)[C@@H]1CCCC/C=C/C(=O)O` [LIMAPROST], for which the AC50 (on Histamine H1 receptor [4]; in assay [1]; in [5]; on Histamine H1 receptor [6]; in [3]) was more than 30 µM each time.

As to `CC#CCn1c(N2CCC[C@@H](N)C2)nc2c1c(=O)n(Cc1nc(C)c3ccccc3n1)c(=O)n2C` [LINAGLIPTIN], the AC50 (on D(1A) dopamine receptor; in [8]; in [2]; in assay [7]) was more than 10 µM in each case.

`Cc1ccc(NC(=O)C2(c3ccc4c(c3)OC(F)(F)O4)CC2)nc1-c1cccc(C(=O)O)c1` [LUMACAFTOR]: the half-maximal activity concentration (AC50) (on Histamine H1 receptor [4]; in assay [5]; on Histamine H1 receptor [6]; in assay [3]) was more than 30 µM throughout.

Take `CCOC(=O)Nc1ccc2c(c1)N(C(=O)CCN1CCOCC1)c1ccccc1S2` [MORICIZINE]: the AC50 (on Histamine H1 receptor [4]; in assay [5]; at Histamine H1 receptor [6]; in assay [3]; at Androgen receptor) was more than 30 µM throughout.

On to `CC(CCc1ccccc1)NC(C)C(O)c1ccc(O)cc1` (centres undefined) [NYLIDRIN], for which the AC50 on D(1A) dopamine receptor is more than 10 µM; in assay [8], 3.38 µM; in [2], 2.5 µM; in [7], 9.39 µM.

For the molecule `O=C1Nc2ccc(Cl)cc2C(c2ccccc2)=NC1O` (centres undefined) [OXAZEPAM], the AC50 at Histamine H1 receptor [4] was more than 30 µM; on D(1A) dopamine receptor, more than 10 µM; in assay [8], more than 10 µM; in assay [2], more than 10 µM; on Histamine H1 receptor [6] it was more than 30 µM; in [7] it was more than 10 µM.

On to `Cc1ccc(=O)n(-c2ccccc2)c1` [PIRFENIDONE], for which the concentration at half-maximal activity (AC50) is more than 30 µM on Histamine H1 receptor [4]; more than 30 µM in assay [1]; more than 10 µM in assay [2]; more than 30 µM in assay [5]; more than 30 µM at Histamine H1 receptor [6]; more than 30 µM in assay [3].

For `Cc1ccc2c(-c3ccccc3)nc(=O)n(C(C)C)c2c1` [PROQUAZONE], the AC50 (on Histamine H1 receptor [4]; in assay [1]; at Histamine H1 receptor [6]; in assay [3]) was more than 30 µM throughout.

Regarding `CN1CCN(c2c(F)cc3c(=O)c(C(=O)O)cn4c3c2SCC4)CC1` [RUFLOXACIN], the AC50 (at Histamine H1 receptor [4]; in assay [1]; on Histamine H1 receptor [6]; in [3]) was more than 30 µM throughout.

For the molecule `CN1c2ccccc2C(NCCCCCCC(=O)O)c2ccc(Cl)cc2S1(=O)=O` (centres undefined) [TIANEPTINE], the AC50 (on Histamine H1 receptor [4]; in assay [1]; on Histamine H1 receptor [6]; in assay [3]) was more than 30 µM each time.

`N#C[C@@H]1CCCN1C(=O)CNC12CC3CC(CC(O)(C3)C1)C2` [VILDAGLIPTIN]: the AC50 (on D(1A) dopamine receptor; in assay [8]; in assay [2]; in assay [7]) was more than 10 µM in each case.
